Several values for one entry are separate records, joined by “and”; a condition that tells them apart may be missing. Equal values may be shown once.
Legend:
Assay in all cases: biochemical
Parameters in all cases: endogenous in cells; host or cells: K562 cell extract; species or system K562 (extract); replicate k of n = 2 (each experiment ID is one independent experiment; two experiment IDs per compound)
Conditions in all cases: read-out: KDapp
[1] = biological target: JAK1 (Homo sapiens, UniProt P23458)
Chain of JAK1 (P23458 whole entry): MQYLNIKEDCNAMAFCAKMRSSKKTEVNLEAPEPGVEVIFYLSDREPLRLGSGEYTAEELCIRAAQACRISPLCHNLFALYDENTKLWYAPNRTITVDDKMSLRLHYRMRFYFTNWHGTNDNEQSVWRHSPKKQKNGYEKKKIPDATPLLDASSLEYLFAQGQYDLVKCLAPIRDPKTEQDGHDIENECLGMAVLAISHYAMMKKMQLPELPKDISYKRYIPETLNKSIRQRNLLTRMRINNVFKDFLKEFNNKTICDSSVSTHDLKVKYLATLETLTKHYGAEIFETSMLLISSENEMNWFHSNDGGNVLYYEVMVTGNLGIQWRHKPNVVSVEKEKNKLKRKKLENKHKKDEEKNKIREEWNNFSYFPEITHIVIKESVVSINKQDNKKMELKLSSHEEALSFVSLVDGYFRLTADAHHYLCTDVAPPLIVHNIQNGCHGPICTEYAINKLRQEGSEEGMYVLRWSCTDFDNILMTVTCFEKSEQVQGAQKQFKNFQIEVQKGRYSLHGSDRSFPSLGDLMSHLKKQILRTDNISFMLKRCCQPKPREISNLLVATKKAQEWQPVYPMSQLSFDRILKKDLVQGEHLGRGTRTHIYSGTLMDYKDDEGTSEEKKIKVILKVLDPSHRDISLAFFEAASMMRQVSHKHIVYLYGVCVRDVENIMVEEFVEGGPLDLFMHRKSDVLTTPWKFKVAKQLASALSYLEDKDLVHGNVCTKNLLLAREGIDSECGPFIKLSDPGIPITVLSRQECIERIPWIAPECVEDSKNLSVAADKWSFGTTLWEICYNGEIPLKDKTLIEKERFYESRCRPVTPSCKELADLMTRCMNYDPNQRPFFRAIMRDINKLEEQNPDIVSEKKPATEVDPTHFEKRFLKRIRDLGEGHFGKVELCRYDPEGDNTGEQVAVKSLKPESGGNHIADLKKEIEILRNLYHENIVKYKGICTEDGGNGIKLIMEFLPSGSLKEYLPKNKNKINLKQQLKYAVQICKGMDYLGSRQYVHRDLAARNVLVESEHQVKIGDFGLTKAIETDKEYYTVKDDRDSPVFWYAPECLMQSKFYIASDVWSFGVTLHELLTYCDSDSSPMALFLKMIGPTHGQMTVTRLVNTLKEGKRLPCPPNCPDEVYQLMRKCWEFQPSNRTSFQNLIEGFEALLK

[2] = biological target: MAP3K4 (Homo sapiens, UniProt Q9Y6R4)
Chain of MAP3K4 (Q9Y6R4 whole entry): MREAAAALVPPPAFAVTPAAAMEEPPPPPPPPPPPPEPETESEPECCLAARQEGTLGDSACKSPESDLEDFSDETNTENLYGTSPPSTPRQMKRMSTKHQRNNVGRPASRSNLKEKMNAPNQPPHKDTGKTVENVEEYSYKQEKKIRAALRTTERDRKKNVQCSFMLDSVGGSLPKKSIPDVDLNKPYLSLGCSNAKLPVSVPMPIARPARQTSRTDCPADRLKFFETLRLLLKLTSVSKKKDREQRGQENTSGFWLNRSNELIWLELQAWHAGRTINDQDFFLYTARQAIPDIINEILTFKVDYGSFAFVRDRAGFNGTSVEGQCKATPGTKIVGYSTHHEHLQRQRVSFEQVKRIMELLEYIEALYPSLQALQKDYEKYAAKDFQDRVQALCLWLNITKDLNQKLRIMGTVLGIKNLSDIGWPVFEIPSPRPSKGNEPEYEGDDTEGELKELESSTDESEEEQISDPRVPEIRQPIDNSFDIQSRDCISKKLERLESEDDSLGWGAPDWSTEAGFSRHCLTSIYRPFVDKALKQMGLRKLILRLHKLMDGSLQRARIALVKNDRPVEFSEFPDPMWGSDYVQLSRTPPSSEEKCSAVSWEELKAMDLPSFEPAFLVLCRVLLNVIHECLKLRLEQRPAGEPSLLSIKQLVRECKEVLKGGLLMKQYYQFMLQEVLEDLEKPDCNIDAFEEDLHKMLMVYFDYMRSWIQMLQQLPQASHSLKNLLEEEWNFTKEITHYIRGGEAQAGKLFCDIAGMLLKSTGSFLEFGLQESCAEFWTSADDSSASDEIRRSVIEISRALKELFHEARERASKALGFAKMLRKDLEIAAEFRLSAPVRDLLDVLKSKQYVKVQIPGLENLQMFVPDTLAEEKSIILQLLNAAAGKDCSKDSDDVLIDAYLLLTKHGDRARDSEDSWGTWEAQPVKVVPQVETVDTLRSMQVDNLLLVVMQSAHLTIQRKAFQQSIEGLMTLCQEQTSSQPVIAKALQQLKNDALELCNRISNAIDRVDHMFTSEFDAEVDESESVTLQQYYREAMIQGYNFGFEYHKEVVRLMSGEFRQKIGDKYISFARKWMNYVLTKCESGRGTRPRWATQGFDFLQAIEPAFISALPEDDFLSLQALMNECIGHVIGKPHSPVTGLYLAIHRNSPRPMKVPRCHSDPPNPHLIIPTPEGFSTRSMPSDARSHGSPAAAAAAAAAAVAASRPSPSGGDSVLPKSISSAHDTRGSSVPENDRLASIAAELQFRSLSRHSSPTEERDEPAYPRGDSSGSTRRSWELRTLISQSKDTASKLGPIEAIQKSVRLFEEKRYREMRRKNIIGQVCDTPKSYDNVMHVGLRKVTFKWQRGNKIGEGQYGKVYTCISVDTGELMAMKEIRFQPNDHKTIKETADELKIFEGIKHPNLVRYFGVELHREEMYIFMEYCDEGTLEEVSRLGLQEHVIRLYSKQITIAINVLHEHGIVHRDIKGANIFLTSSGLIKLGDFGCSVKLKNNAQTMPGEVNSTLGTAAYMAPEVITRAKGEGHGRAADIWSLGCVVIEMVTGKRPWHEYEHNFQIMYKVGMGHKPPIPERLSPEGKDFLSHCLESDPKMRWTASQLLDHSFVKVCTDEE

[3] = biological target: T1, EPHB4 (Homo sapiens, UniProt P54760)
T1 sequence (P54760 1-987): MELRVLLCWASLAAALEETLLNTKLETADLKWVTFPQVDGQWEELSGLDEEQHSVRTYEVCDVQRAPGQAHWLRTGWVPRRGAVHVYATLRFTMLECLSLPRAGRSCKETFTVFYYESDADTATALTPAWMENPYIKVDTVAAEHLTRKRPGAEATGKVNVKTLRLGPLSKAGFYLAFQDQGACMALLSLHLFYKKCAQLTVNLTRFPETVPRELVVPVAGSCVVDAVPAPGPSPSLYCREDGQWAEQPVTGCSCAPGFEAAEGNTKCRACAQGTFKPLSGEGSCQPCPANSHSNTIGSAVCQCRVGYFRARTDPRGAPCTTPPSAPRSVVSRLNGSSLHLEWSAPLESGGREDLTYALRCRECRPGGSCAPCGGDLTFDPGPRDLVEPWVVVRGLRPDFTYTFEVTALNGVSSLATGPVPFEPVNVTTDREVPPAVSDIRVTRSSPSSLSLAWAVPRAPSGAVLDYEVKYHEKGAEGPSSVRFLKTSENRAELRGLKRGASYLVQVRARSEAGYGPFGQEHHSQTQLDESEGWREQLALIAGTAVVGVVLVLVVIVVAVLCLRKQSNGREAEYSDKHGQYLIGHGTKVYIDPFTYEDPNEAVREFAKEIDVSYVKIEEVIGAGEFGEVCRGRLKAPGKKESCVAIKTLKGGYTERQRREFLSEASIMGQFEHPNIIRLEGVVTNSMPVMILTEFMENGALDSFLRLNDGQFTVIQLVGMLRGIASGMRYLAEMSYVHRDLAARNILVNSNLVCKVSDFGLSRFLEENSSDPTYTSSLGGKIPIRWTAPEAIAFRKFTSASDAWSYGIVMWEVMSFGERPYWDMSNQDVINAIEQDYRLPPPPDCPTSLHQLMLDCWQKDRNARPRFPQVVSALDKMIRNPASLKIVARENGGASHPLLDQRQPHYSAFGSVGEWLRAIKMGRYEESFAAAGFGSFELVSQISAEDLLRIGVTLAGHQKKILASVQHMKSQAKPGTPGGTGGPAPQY

[4] = biological target: T2, LATS1 (Homo sapiens, UniProt O95835)
T2 sequence (O95835 1-1130): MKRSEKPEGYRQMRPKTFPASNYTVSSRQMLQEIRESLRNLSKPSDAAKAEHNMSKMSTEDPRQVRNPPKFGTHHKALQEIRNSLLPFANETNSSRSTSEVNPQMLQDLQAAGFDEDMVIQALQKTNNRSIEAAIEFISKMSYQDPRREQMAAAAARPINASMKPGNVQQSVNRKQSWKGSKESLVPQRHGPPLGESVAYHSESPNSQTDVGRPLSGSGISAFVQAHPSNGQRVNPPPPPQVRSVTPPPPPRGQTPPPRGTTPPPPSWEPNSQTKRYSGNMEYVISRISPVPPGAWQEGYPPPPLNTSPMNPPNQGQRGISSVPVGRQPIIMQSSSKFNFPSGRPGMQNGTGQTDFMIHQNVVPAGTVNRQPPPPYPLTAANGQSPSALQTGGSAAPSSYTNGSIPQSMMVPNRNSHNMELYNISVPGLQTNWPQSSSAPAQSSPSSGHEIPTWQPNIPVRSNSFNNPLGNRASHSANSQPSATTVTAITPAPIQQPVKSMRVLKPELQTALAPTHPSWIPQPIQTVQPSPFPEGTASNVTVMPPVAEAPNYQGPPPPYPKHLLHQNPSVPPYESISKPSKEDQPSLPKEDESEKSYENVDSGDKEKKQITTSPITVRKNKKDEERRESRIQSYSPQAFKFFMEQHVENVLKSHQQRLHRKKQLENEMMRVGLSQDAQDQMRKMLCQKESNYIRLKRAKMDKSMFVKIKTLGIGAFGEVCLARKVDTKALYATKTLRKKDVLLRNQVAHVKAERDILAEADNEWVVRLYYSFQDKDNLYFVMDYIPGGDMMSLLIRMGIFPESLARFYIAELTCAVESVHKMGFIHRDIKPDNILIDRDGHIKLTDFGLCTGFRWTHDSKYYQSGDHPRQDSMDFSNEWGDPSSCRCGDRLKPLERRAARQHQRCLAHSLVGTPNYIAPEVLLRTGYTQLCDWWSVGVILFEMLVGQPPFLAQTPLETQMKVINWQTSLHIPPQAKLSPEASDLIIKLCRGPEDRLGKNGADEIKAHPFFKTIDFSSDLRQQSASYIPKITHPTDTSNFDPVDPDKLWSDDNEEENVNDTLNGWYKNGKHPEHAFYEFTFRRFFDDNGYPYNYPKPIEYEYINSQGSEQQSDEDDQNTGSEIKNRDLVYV

[5] = biological target: LYN (Homo sapiens, UniProt P07948)
Chain of LYN (P07948 whole entry): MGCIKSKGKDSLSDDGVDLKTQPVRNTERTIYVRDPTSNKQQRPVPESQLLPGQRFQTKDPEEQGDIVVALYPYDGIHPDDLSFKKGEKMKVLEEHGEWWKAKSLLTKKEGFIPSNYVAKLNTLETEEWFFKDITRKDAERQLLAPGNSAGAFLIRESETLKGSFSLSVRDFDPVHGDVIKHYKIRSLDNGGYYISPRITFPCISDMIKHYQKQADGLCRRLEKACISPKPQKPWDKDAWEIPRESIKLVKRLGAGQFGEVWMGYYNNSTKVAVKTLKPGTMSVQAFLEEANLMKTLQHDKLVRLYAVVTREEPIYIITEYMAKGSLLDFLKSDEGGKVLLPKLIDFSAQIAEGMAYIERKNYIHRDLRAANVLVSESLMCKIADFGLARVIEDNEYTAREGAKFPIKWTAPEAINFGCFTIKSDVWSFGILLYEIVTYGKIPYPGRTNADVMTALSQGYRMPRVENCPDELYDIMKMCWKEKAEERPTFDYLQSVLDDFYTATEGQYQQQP

Row | Structure (SMILES) | Kd [1] | Kd [2] | Kd [3] [nM] | Kd [4] [nM] | Kd [5]
1 | CN(C)CC(O)COc1ccc(Nc2ncc([N+](=O)[O-])c(Nc3ccccc3O)n2)cc1.O=C(O)C(F)(F)F (stereo not shown) [TCMDC-141399] | 272 nM and 346 nM | 426 nM |  |  | 
2 | Cl.NCC1(c2nc(-c3ccc(Cl)c(O)c3)c(-c3ccncc3)[nH]2)CCCCC1 [TCMDC-141154] |  |  | 2600 | 911 | 621 nM
3 | CN1CCN(c2ccc(Nc3ncc(C#N)c(Nc4ccccc4C(N)=O)n3)cc2)CC1.Cl [TCMDC-134116] | 13.1 nM and 19.5 nM | 19.8 nM and 25.8 nM | 2110 | 174 | 134 nM and 167 nM
